Experimental data: ChEMBL document CHEMBL2040823, “A novel class of small-molecule caspase-3 inhibitors prepared by multicomponent reactions” (Eur J Med Chem, 2012)

Molecular target: T1, Caspase-3 (Homo sapiens, UniProt P42574)
T1 sequence (P42574 whole entry): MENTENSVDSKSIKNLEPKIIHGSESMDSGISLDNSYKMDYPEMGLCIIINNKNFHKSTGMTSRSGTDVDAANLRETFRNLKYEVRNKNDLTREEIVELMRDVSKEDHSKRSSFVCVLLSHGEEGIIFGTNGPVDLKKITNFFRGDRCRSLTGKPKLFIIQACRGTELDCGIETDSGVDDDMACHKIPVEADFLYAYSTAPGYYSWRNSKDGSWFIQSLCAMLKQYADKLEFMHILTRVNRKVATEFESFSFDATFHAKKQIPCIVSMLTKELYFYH
Assay: Inhibition of human recombinant caspase-3 catalytic domain using Ac-DEVD-pNA as substrate preincubated for 30 mins before substrate addition measured after 3 mins

| IC50 [µM] | SMILES |
| --- | --- |
| > 45 | CCCNC1=C(C(=O)OC)CN(c2ccccc2)C1=O |
| > 45 | CCOC(=O)C1=C(Nc2ccccc2)C(=O)N(c2ccccc2)C1 |
| > 45 | CCOC(=O)C1=C(Nc2ccc(F)cc2)C(=O)N(c2ccc(F)cc2)C1 |
| > 45 | CCOC(=O)C1=C(NC2CCCCC2)C(=O)N(C2CCCCC2)C1 |
| > 45 | CCCN1C(=O)C(Nc2ccc(Br)cc2)=C(C(=O)OCC)C1c1ccccc1 (centres undefined) |

Tested on: not listed separately
Assay: Octanol-water partition coefficient, log P of the compound by Shake-flask method
Format: physicochemical

| SMILES | logP |
| --- | --- |
| CCOC(=O)C1=C(Nc2ccc(Br)cc2)C(=O)N(c2ccc(Br)cc2)C1 | 1.75 |
| CCOC(=O)C1=C(Nc2cccc3ccccc23)C(=O)N(C2CCCCC2)C1c1ccccc1 (centres undefined) | 2 |

Continued, values first:

| logP | SMILES |
| --- | --- |
| 1.8 | CCOC(=O)C1=C(NC2CCCCC2)C(=O)N(c2ccc(Br)cc2)C1 |
| 2.25 | CCOC(=O)C1=C(Nc2ccc(Br)cc2)C(=O)N(C2CCCCC2)C1c1ccccc1 (centres undefined) |
